In article PMC11656837, “pH-Responsive Peptide Nanoparticles Deliver Macromolecules to Cells via Endosomal Membrane Nanoporation” (ACS Nano, 2024):
Where no end group is shown, it is not given here.

Experiments:
RAW macrophages = details: read-out: EC50 (peptide concentration midpoint for PE-III delivery), PE-III constant, 48 h, Alamar Blue
HeLa cells [1] = details: HeLa, 48 h
Excerpt: For this, we use PE-III, the third domain of the Pseudomonas exotoxin. This 25 kDa enzyme ADP ribosylates ribosomal elongation factor 2, thereby blocking protein synthesis and triggering apoptosis. […] Thus, apoptosis will occur only if an exogenous agent, such as a peptide, enables cytosolic delivery of the 4 × 3 nm PE-III protein, Figure 2A.
Comparison of peptide concentration midpoints requires a constant concentration of PE-III in each experiment. […] The major disadvantage of the PE-III assay to detect delivery is that only a few molecules of active PE-III delivered to the cytosol[36] will produce a positive result. To partly mitigate this effect in the assays described below, we use a constant 40 nM PE-III. At such a low concentration, each endosome will contain an average of fewer than one PE-III molecule if we assume passive entrapment of the cargo (see the Supporting Information).
The no treatment (no tx) control group contained cells but no peptide or PE-III enzyme. The Alamar Blue intensity of this group was defined as 100% viability. Media alone without cells was defined as 0% viability.
The concentration range used for each peptide was adjusted according to preliminary measurements of activity in this assay. We assessed PE-III delivery by measuring cell viability using Alamar Blue.
Fifteen thousand HeLa cells were seeded in a clear bottom, black-walled 96-well plate overnight at 37 °C with 5% CO2 in complete media (DMEM + phenol red +10% FBS + antimycotic/antibiotic + nonessential amino acids). Cells were then washed once in PBS and treated with PE-III and peptide in serum-free media without phenol red, with a 50 μL total volume. After a 2-day incubation with treatment, 50 μL of 10% Alamar blue reagent diluted in serum-free media was added directly to each well (5% Alamar blue final) and incubated for 1.5 h at 37 °C. The plate was then read at 550 equiv/590 em on a Biotek plate reader. Untreated cells were used as a negative control, and MelP5-treated cells served as a positive control.

HeLa cells [2] = experiment: Direct cytotoxicity without PE-III cargo (Alamar Blue); format: cell-based, human; details: 200 μM peptide, no PE-III, 48 h
Method: The no treatment (no tx) control group contained cells but no peptide or PE-III enzyme. The Alamar Blue intensity of this group was defined as 100% viability. Media alone without cells was defined as 0% viability. […] When 200 μM D-pHD108 and 40 nM PE-III were added together, essentially 100% loss of cell viability was observed, showing that PE-III was effectively delivered to the cytosol by the pHD peptide. […] This observation provides strong support for the hypothesis that PE-III delivery occurs via endocytosis and that it is dependent on endosomal acidification because the L-amino acid peptide, but not the D-amino acid peptide, is susceptible to acidification-dependent proteolytic degradation which occurs in endosomal compartments.
We tested for direct toxicity of the acylated pHD peptides by incubating the same concentrations of acylated pHD peptide variants with cells in the absence of PE-III. […] Thus, all of the apoptosis observed in the PE-III delivery assays was due to the cytosolic delivery of intact PE-III and not to the direct action of the acylated pHD peptide.

Row | Compound | EC50 (RAW macrophages) [µM] | loss of cell viability (HeLa cells [1]; 200 μM peptide + 40 nM PE-III, 37 °C, Alamar Blue) [%] | effect on cell viability, peptide alone (HeLa cells [2]) | PE-III delivery/apoptosis (HeLa cells [1]; same concentration range as unmodified pHD108, 40 nM PE-III)
1 | CC[C@@H](C)[C@@H](NC(=O)CN)C(=O)NCC(=O)N[C@H](CCC(=O)O)C(=O)N[C@@H](C(=O)N[C@H](CC(C)C)C(=O)N[C@H](Cc1c[nH]cn1)C(=O)N[C@H](CCC(=O)O)C(=O)N[C@H](CC(C)C)C(=O)N[C@H](C)C(=O)N[C@H](CCC(=O)O)C(=O)NCC(=O)N[C@H](CC(C)C)C(=O)N1CCC[C@@H]1C(=O)N[C@H](CCC(=O)O)C(=O)N[C@H](CC(C)C)C(=O)N[C@H](CCC(N)=O)C(=O)N[C@H](CCC(=O)O)C(=O)N[C@H](Cc1c[nH]c2ccccc12)C(=O)N[C@@H](C(=O)N[C@H](Cc1c[nH]cn1)C(=O)N[C@H](C)C(=O)N[C@H](C)C(=O)N[C@H](CCC(N)=O)C(=O)N[C@H](CCC(N)=O)C(=O)N[C@H](CC(C)C)C(N)=O)[C@H](C)CC)C(C)C [D-pHD108] | 75 | ~100 | no effect on cell viability | 
2 | PLGRPQLRRGQF-NH2 [ONEG, reference compound] |  |  |  | no measurable PE-III delivery/apoptosis
